Source: patent US20260053811A1, “METHODS OF TREATING HYPERTENSION IN OBESE SUBJECTS” (Mineralys Therapeutics, Inc., priority 2022, published 2026)
Like-named read-outs stand apart in the source and are kept apart here.

How the values were obtained:
Type in all cases: in vivo, human
[1] = Pharmacokinetics (plasma Cmax, AUC, Tmax, t1/2, trough concentrations); settings: for concentration at 7 day / concentration at 28 day / concentration at 56 day / AUC(0-t) / Cmax / Tmax: human, plasma, oral; for concentration at 7 day / concentration at 28 day / concentration at 56 day / AUC(0-t) / Cmax: 100 mg; for concentration at 7 day: Day 7; for concentration at 28 day: Day 28; for concentration at 56 day: Day 56; for Tmax: read-out: Tmax, Median
Excerpt: Pharmacokinetic endpoints of this study are PK parameters, including, of area under the plasma concentration versus time curve (AUC), maximum plasma concentration (Cmax), time to maximum concentration (Tmax), and half-life (t1/2) will be summarized descriptively for Randomization (baseline) and Study Weeks 1, 4, and 8
(§1) PK/PD Analysis Set includes all subjects in the SAF who have sufficient data available for the analysis of pharmacokinetic and pharmacodynamic measurements. In the analyses based on PKPD, subjects will be analyzed according to the actual treatment received.

plasma renin activity = assay: Plasma renin activity (PRA) (pharmacodynamic response); settings: for Renin Activity, Mean (SD) Observed / Renin Activity, Mean (SD) Percent Change from Baseline: Part 1; for Renin Activity, Mean Observed / Renin Activity, Mean Percent Change from Baseline: Part 2
Excerpt: as §1

hypertensive subjects = assay: ACTH stimulation testing / adrenocortical insufficiency
Procedure: 11-deoxycorticosterone levels were unaffected. […] Due to supply chain disruption, the ability to perform ACTH stimulation testing was limited during the first part of the trial. However, the majority of subjects in Part 2 dosed with 100 mg QD, the maximum dose tested, had ACTH-stimulation testing performed at Baseline and after 8 weeks of treatment.

[2] = 100 mg QD Part 2, read-out: Trough Plasma Concentration, Mean (SD)
[3] = 100 mg QD Part 2, read-out: Trough Plasma Concentration, Median
[4] = 100 mg QD Part 1, read-out: Trough Plasma Concentration, Mean (SD)
[5] = 100 mg QD Part 1, read-out: Trough Plasma Concentration, Median
[6] = steady state Day 28, 12.5 mg BID

## CC(=O)N[C@H]1CC[C@H](NC(=O)CN2CCN(c3nncc(-c4ccc(C)cc4)n3)CC2)CC1 [Compound A HBr]
[1]; [2]
  concentration at 7 day: 151 ng/mL
  concentration at 28 day: 26.4 ng/mL
  concentration at 56 day: 23.2 ng/mL
[1]; [3]
  concentration at 7 day: 29.8 ng/mL
  concentration at 28 day: 19.9 ng/mL
  concentration at 56 day: 20 ng/mL
[1]; 100 mg QD Part 1, read-out: Trough Plasma Concentration, Geo Mean
  concentration at 28 day: 50.7 ng/mL
[1]; [4]
  concentration at 28 day: 303 ng/mL
  concentration at 56 day: 258 ng/mL
[1]; [5]
  concentration at 28 day: 38.6 ng/mL
  concentration at 56 day: 30.4 ng/mL
[1]; 100 mg QD Part 2, read-out: Trough Plasma Concentration, Geo Mean
  concentration at 28 day: 12.9 ng/mL
[1]; 100 mg QD Part 1, read-out: Trough Plasma Concentration, Geometric Mean
  concentration at 56 day: 72.1 ng/mL
[1]; 100 mg QD Part 2, read-out: Trough Plasma Concentration, Geometric Mean
  concentration at 56 day: 20.3 ng/mL
[1]; steady state Day 28, 100 mg QD Part 1, read-out: AUC0-24, Geo Mean
  AUC(0-t): 10400 ng·h/mL
[1]; steady state Day 28, 100 mg QD Part 1, read-out: AUC0-24, Mean (SD)
  AUC(0-t): 14900 ng·h/mL
[1]; steady state Day 28, 100 mg QD Part 1, read-out: AUC0-24, Median
  AUC(0-t): 15000 ng·h/mL
[1]; steady state Day 28, 100 mg QD Part 1, read-out: Cmax, Geo Mean
  Cmax: 1370 ng/mL
[1]; steady state Day 28, 100 mg QD Part 1, read-out: Cmax, Mean (SD)
  Cmax: 1620 ng/mL
[1]; steady state Day 28, 100 mg QD Part 1, read-out: Cmax, Median
  Cmax: 1590 ng/mL
[1]; steady state Day 28, 100 mg QD Part 2, read-out: AUC0-24, Geo Mean
  AUC(0-t): 6920 ng·h/mL
[1]; steady state Day 28, 100 mg QD Part 2, read-out: AUC0-24, Mean (SD)
  AUC(0-t): 7480 ng·h/mL
[1]; steady state Day 28, 100 mg QD Part 2, read-out: AUC0-24, Median
  AUC(0-t): 7090 ng·h/mL
[1]; steady state Day 28, 100 mg QD Part 2, read-out: Cmax, Geo Mean
  Cmax: 1000 ng/mL
[1]; steady state Day 28, 100 mg QD Part 2, read-out: Cmax, Mean (SD)
  Cmax: 1360 ng/mL
[1]; steady state Day 28, 100 mg QD Part 2, read-out: Cmax, Median
  Cmax: 1250 ng/mL
[1]; steady state Day 28, 12.5 mg QD
  Tmax: 1.08 h
[1]; steady state Day 28, 50 mg QD
  Tmax: 2.01 h
[1]; [6]
  Cmax, Geo Mean: 140 ng/mL
  Cmax, Mean (SD): 142 (28.3) ng/ml
[1]; steady state Day 28, 25 mg BID
  Cmax, Mean (SD): 361 (175) ng/ml
[1]; steady state Day 28, 100 mg QD Part 1
  Tmax, Median: 1.02 h
[1]; steady state Day 28, 100 mg QD Part 2
  Tmax, Median: 1 h
Plasma renin activity; Wk 4, 12.5 mg BID
  Renin Activity, Mean (SD) Observed: 5.989 (11.272) μg/L/hr
  Renin Activity, Mean (SD) Percent Change from Baseline: 838.89 (2411.4) %
Plasma renin activity; Wk 4, 12.5 mg QD
  Renin Activity, Mean (SD) Observed: 1.804 (3.565) μg/L/hr
  Renin Activity, Mean (SD) Percent Change from Baseline: 85.09 (291.65) %
Plasma renin activity; Wk 4, 25 mg BID
  Renin Activity, Mean (SD) Observed: 2.860 (4.219) μg/L/hr
  Renin Activity, Mean (SD) Percent Change from Baseline: 344.07 (480.75) %
Plasma renin activity; Wk 4, 50 mg QD
  Renin Activity, Mean (SD) Observed: 3.940 (9.162) μg/L/hr
  Renin Activity, Mean (SD) Percent Change from Baseline: 359.69 (888.86) %
Plasma renin activity; Wk 4, 100 mg QD
  Renin Activity, Mean (SD) Observed: 3.870 (6.308) μg/L/hr
  Renin Activity, Mean (SD) Percent Change from Baseline: 489.18 (974.60) %
  Renin Activity, Mean Observed: 12.642 µg/L/h
  Renin Activity, Mean Percent Change from Baseline: 811.54%
Plasma renin activity; Wk 12, 12.5 mg BID
  Renin Activity, Mean (SD) Observed: 5.118 (11.751) μg/L/hr
  Renin Activity, Mean (SD) Percent Change from Baseline: 212.37 (402.15) %
Plasma renin activity; Wk 12, 12.5 mg QD
  Renin Activity, Mean (SD) Observed: 2.429 (5.048) μg/L/hr
  Renin Activity, Mean (SD) Percent Change from Baseline: 137.45 (279.23) %
Plasma renin activity; Wk 12, 25 mg BID
  Renin Activity, Mean (SD) Observed: 2.898 (8.323) μg/L/hr
  Renin Activity, Mean (SD) Percent Change from Baseline: 198.91 (423.17) %
Plasma renin activity; Wk 12, 50 mg QD
  Renin Activity, Mean (SD) Observed: 3.374 (7.008) μg/L/hr
  Renin Activity, Mean (SD) Percent Change from Baseline: 400.07 (808.60) %
Plasma renin activity; Wk 12, 100 mg QD
  Renin Activity, Mean (SD) Observed: 1.653 (2.830) μg/L/hr
  Renin Activity, Mean (SD) Percent Change from Baseline: 94.66 (221.58) %
Plasma renin activity; Wk 10, 100 mg QD
  Renin Activity, Mean Observed: 7.602 µg/L/h
  Renin Activity, Mean Percent Change from Baseline: 192.62%
Plasma renin activity; across doses
  Plasma renin activity, pharmacodynamic response: commensurate increase in plasma renin activity
Plasma renin activity; irrespective of dose and baseline PRA, highest at Week 4
  Renin activity, percent change from baseline: increased in all subjects treated with lorundrostat
Hypertensive subjects; during the trial, listed as lorundrostat
  Adrenocortical insufficiency: no adrenocortical insufficiency occurred
Hypertensive subjects; majority of Part 2 subjects, 100 mg QD, Baseline and after 8 weeks
  ACTH-stimulation results: no individuals with abnormal ACTH-stimulation results
